Data: patent US11292801B2, “Calpain modulators and therapeutic uses thereof” (Blade Therapeutics, Inc., priority 2016, dated 2022)

Key:
[1] = molecular target: T1, Human Calpain 9/NS1 (Homo sapiens, UniProt O14815); test: Biochemical inhibition of calpain 9, continuous fluorescence (FRET substrate) assay; settings: mean, read-out: Human Calpain 9/NS1 IC50 (nM)_MEAN
T1 sequence (O14815 1-690): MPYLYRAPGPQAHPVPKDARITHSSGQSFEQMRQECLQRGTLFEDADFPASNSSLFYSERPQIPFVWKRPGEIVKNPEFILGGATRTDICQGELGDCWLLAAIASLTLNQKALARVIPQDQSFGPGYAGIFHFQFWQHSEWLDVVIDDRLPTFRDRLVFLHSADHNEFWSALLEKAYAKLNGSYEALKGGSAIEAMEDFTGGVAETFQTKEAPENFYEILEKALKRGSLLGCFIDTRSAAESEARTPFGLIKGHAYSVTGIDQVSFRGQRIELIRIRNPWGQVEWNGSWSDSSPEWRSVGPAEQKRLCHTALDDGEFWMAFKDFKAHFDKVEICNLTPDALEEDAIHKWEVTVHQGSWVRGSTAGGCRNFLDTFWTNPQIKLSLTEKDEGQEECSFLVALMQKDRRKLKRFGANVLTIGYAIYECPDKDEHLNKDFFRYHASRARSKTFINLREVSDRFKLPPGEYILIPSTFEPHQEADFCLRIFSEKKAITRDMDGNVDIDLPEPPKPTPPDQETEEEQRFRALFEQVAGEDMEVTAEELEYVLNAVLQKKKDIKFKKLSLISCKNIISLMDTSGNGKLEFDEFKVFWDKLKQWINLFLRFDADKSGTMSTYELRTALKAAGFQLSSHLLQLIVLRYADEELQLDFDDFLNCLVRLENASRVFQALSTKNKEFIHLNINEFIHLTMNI
T1 sequence (P04632 1-268 partner): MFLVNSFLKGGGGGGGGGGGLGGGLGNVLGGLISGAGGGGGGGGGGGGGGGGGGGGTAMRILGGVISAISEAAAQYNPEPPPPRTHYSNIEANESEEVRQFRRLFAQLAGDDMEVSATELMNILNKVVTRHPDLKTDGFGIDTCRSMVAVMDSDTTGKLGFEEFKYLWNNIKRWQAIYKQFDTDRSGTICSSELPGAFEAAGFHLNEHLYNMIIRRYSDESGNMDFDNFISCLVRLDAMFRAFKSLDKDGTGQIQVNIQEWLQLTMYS
How it was run: (§1)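 IC50 values come from 4-parameter fits of progress-curve rates (1-5 min slopes) against log inhibitor concentration. Calpain and inhibitor premixed at ambient 25C in Tris pH ~7.5/NaCl/DTT buffer, then CaCl2 and FRET substrate added to activate; 5-FAM fluorescence (ex 490/em 520) followed 10 min.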

[2] = molecular target: T2, Human Calpain 2/NS1 (Homo sapiens, UniProt P17655); test: Biochemical inhibition of calpain 2, continuous fluorescence (FRET substrate) assay; settings: mean, read-out: Human Calpain 2/NS1 IC50 (nM)_MEAN
T2 sequence (P17655 1-700): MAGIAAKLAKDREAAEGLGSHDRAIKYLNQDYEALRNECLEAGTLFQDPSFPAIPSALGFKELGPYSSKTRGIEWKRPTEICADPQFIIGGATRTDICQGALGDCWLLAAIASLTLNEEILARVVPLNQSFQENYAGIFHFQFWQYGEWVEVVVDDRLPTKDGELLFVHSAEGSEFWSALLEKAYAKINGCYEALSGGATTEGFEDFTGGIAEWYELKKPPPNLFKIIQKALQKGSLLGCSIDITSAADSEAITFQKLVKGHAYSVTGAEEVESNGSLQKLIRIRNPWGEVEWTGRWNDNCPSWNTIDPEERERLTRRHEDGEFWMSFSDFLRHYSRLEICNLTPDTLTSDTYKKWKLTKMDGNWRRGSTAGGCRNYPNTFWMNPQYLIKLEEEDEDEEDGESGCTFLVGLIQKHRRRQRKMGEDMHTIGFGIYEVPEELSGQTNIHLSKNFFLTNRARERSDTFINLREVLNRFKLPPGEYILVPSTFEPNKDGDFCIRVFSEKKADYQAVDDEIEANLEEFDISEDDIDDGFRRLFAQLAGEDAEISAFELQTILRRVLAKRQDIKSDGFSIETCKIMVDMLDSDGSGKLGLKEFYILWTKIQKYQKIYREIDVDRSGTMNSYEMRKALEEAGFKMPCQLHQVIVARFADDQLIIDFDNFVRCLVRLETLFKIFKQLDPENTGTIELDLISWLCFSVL
T2 sequence (P04632 1-268 partner): T1 sequence (P04632 1-268 partner)
How it was run: as §1

[3] = molecular target: T3, Human Calpain 1/NS1 (Homo sapiens, UniProt P07384); test: Biochemical inhibition of calpain 1, continuous fluorescence (FRET substrate) assay; settings: mean, read-out: Human Calpain 1/NS1 IC50 (nM)_MEAN
T3 sequence (P07384 1-714): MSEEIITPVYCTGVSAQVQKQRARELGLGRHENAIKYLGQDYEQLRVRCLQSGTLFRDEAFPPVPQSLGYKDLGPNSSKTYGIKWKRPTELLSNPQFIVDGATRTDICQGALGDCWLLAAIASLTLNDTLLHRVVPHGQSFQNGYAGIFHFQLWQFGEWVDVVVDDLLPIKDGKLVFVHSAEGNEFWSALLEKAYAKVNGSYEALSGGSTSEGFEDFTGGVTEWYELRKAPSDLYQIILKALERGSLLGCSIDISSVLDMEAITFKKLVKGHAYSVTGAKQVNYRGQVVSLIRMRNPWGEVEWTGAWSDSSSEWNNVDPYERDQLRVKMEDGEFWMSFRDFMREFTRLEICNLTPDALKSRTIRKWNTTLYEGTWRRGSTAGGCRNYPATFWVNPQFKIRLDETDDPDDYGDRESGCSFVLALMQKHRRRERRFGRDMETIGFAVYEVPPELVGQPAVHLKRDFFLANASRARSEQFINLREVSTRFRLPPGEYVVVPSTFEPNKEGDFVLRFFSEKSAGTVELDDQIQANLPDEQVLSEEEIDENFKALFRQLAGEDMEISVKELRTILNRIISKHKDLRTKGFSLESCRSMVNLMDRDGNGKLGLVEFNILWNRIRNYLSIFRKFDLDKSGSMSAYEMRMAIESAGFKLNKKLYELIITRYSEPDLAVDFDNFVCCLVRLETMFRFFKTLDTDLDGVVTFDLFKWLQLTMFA
T3 sequence (P04632 1-268 partner): T1 sequence (P04632 1-268 partner)
How it was run: as §1

Compound	IC50 [1]	IC50 [2]	IC50 [3]
CCNC(=O)C(=O)[C@@H]1C/C=C/CCCCCCc2ccccc2C(=O)N1 [Compound 17, (S,E)-N-ethyl-2-oxo-2-(1-oxo-1,2,3,4,7,8,9,10,11,12-decahydrobenzo[c][1]azacyclotetradecin-3-yl)acetamide]	> 10000 nM	> 10000 nM	> 10000 nM
O=C(NC1CC1)C(=O)[C@@H]1Cc2ccc(cc2)OCCCCOc2ccc3c(cnn3-c3ncccc3C(=O)N1)c2 [Compound 68, N-cyclopropyl-2-oxo-2-((5S)-3-oxo-1^1H-8,13-dioxa-4-aza-1(1,5)-indazola-2(2,3)-pyridina-7(1,4)-benzenacyclotridecaphane-5-yl)acetamide]	< 3000 nM	< 3000 nM	< 3000 nM
CCNC(=O)C(=O)[C@@H]1CCCCCCCCCCc2ccccc2C(=O)N1 [Compound 34, (S)—N-ethyl-2-oxo-2-(1-oxo-2,3,4,5,6,7,8,9,10,11,12,13-dodecahydro-1h-benzo[c][1]azacyclopentadecin-3-yl)acetamide]	> 10000 nM	> 10000 nM	> 10000 nM
CON(C)C(=O)[C@@H]1C/C=C/CCOc2ccnc(n2)-c2ccccc2C(=O)N1 [Compound 135, (S,E)-N-methoxy-N-methyl-3-oxo-11-oxa-4-aza-1(2,4)-pyrimidina-2(1,2)-benzenacycloundecaphan-7-ene-5-carboxamide]	> 10000 nM	> 10000 nM	> 10000 nM
CC(C)CCNC(=O)C(=O)C1CCCCOCCOCc2ccccc2C(=O)N1 (stereo not drawn) [Compound 90, N-isopentyl-2-oxo-2-(12-oxo-1,3,4,6,7,8,9,10,11,12-decahydrobenzo[f][1,4]dioxa[9]azacyclotetradecin-10-yl)acetamide]	< 3000 nM	3000 to 10000 nM	> 10000 nM
O=C(NCc1cccc(F)c1)C(=O)C1CCCCOCCOCc2ccccc2C(=O)N1 (stereo not drawn) [Compound 106, N-(3-fluorobenzyl)-2-oxo-2-(12-oxo-1,3,4,6,7,8,9,10,11,12-decahydrobenzo[f][1,4]dioxa[9]azacyclotetradecin-10-yl)acetamide]	< 3000 nM	3000 to 10000 nM	> 10000 nM
O=C[C@@H]1Cc2ccc(cc2)OCCCCOc2cccc(c2)-c2ccn(n2)-c2ncccc2C(=O)N1 [Compound 46, (6S,E)-4-oxo-2^1H-9,14-dioxa-5-aza-3(2,3)-pyridina-2(3,1)-pyrazola-1(1,3),8(1,4)-dibenzenacyclotetradecaphane-6-carbaldehyde]	< 3000 nM	< 3000 nM	< 3000 nM
O=C[C@@H]1Cc2ccccc2CCCOCCCn2cncc2C(=O)N1 [Compound 22]	> 10000 nM	3000 to 10000 nM	3000 to 10000 nM
O=C(NCc1ccc(Cl)cc1Cl)C(=O)C1CCCCOCCOCc2ccccc2C(=O)N1 (stereo not drawn) [Compound 96, N-(2,4-dichlorobenzyl)-2-oxo-2-(12-oxo-1,3,4,6,7,8,9,10,11,12-decahydrobenzo[f][1,4]dioxa[9]azacyclotetradecin-10-yl)acetamide]	3000 to 10000 nM	> 10000 nM	> 10000 nM
O=C(NC1(c2cccnc2)CC1)C(=O)C1CCCCOCCOCc2ccccc2C(=O)N1 (stereo not drawn) [Compound 125, 2-Oxo-2-(12-oxo-1,3,4,6,7,8,9,10,11,12-decahydrobenzo[f][1,4]dioxa[9]aza-cyclotetradecin-10-yl)-N-(1-(pyridin-3-yl)cyclopropyl)acetamide]	> 10000 nM	> 10000 nM	> 10000 nM
C/C1=C\C[C@@H](C=O)NC(=O)c2cc(C)nn2-c2cccc(c2)OCC1 [Compound 144, (S,E)-1^3,6-dimethyl-11-oxo-1^1H-3-oxa-10-aza-1(1,5)-pyrazola-2(1,3)-benzenacycloundecaphan-6-ene-9-carbaldehyde]	< 3000 nM	< 3000 nM	< 3000 nM
CCCNC(=O)C(=O)C1CCCCOCCOCc2ccccc2C(=O)N1 (stereo not drawn) [Compound 91, 2-Oxo-2-(12-oxo-1,3,4,6,7,8,9,10,11,12-decahydrobenzo[f][1,4]dioxa[9]azacyclotetradecin-10-yl)-N-propylacetamide]	> 10000 nM	> 10000 nM	> 10000 nM
NC(=O)C(=O)[C@@H]1CCCCCOc2ccnc(n2)-c2ccccc2C(=O)N1 [Compound 129, (S)-2-oxo-2-(3-oxo-11-oxa-4-aza-1(2,4)-pyrimidina-2(1,2)-benzena-cycloundecaphane-5-yl)acetamide]	< 3000 nM	< 3000 nM	< 3000 nM
O=C(NC1CC1)C(=O)[C@@H]1Cc2ccc(cc2)OCCCCOc2cccc(c2)-c2ccn(n2)-c2ncccc2C(=O)N1 [Compound 72, N-cyclopropyl-2-oxo-2-((6S,E)-4-oxo-2^1H-9,14-dioxa-5-aza-3(2,3)-pyridina-2(3,1)-pyrazola-1(1,3),8(1,4)-dibenzenacyclotetradecaphane-6-yl)acetamide]	< 3000 nM	< 3000 nM	< 3000 nM
CCCCNC(=O)C(=O)[C@@H]1CCCCOCCOCc2ccccc2C(=O)N1 [Compound 53, (S)—N-butyl-2-oxo-2-(12-oxo-1,3,4,6,7,8,9,10,11,12-decahydrobenzo[f][1,4]dioxa[9]azacyclotetradecin-10-yl)acetamide]	< 3000 nM	> 10000 nM	> 10000 nM
NC(=O)C(=O)[C@@H]1CCCCOCCOCc2ccccc2C(=O)N1 [Compound 57, (S)-2-Oxo-2-(12-oxo-1,3,4,6,7,8,9,10,11,12-decahydrobenzo[f][1,4]dioxa[9]azacyclotetradecin-10-yl)acetamide]	< 3000 nM	< 3000 nM	3000 to 10000 nM
O=C[C@@H]1C/C=C/CCCOc2ccccc2C(=O)N1 [Compound 21, (S)-10-Oxo-3,4,7,8,9,10-hexahydro-2h-benzo[b][1]oxa[5]aza-cyclododecine-8-carbaldehyde]	3000 to 10000 nM	3000 to 10000 nM	> 10000 nM
O=C[C@@H]1CC=CCOCCCCOCc2ccccc2C(=O)N1 [Compound 12, (S)-14-Oxo-1,3,4,5,6,8,11,12,13,14-decahydrobenzo[h][1,6]dioxa[11]aza-cyclohexadecine-12-carbaldehyde]	3000 to 10000 nM	< 3000 nM	< 3000 nM
